Reference: patent US20210322452A1, “COGNITIVE FUNCTION IMPROVING COMPOSITION COMPRISING NOVEL POST FERMENTED TEA-DERIVED KAEMPFEROL-BASED COMPOUND” (AMOREPACIFIC CORPORATION, priority 2016, published 2021)

How the values were obtained:
beta amyloid (Aβ1-42) = target: T1, beta amyloid (Aβ1-42) (Homo sapiens, UniProt P05067); assay: Inhibition of beta amyloid aggregation, fluorescence analysis (ThioflavinT assay); type: biochemical; conditions: compound 10 μM; for Increased RFU (% of Pos. Cont.): Pos. Cont. (only beta amyloid, no compound) = 100%; for inhibition at 10 µM: aggregation in positive control group taken as 100%, read-out: inhibition of beta amyloid aggregation compared with the positive control group; for Increased RFU (amount of aggregated beta amyloid): Aβ1-42 0.1 mg/ml, thioflavinT, 37° C., 150 minutes
T1 construct: beta amyloid (Aβ1-42, AnaSpec Inc., USA) was obtained; purchased AnaSpec Inc., USA
T1 sequence (P05067 672-713 limits assumed): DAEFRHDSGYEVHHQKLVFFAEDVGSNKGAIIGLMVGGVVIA
Description: The effect of kaempferol3-O-[2-O″-(E)-p-coumaroyl][beta-D-glucopyranosyl-(1→3)-O-alpha-L-rhamnopyranosyl-(1→6)-O-beta-D-glucopyranoside] on inhibition of beta amyloid aggregation was confirmed by the fluorescence analysis (ThioflavinT assay).
Specifically, beta amyloid (Aβ1-42, AnaSpec Inc., USA) was obtained and used at a concentration of 0.1 mg/ml and stored at −80° C. before use. Morin (20 μM), phenol red (20 μM), and kaempferol3-O-[2-O″-(E)-p-coumaroyl][beta-D-glucopyranosyl-(1→3)-O-alpha-L-rhamnopyranosyl-(1→6)-O-beta-D-glucopyranoside] (1 mg/ml) were respectively diluted with DMSO so as to be adjusted to the concentrations.
In order to specify the degree of inhibition of Aβ1-42 aggregation, each of the compounds prepared at the above concentrations was diluted with 50 μL of 0.01 M sodium phosphate buffer solution to have a concentration of 10 μM, then 40 μL of 0.1 mg/ml of Aβ1-42 was added thereto, and then 10 μl of 2 mM thioflavinT was added thereto, and fluorescence was measured using a fluorescence spectrometer (RF-5300PC, SHIMADZU CORPORATION, Japan) at 37° C. for 150 minutes at intervals of 5 minutes.

[1] = test system: BDNF (brain-derived neurotrophic factor); assay: Expression level of intracellular BDNF in SH-SY5Y cells (real-time quantitative PCR); type: cell-based; conditions: 24 hours, mRNA vs GAPDH, untreated = 100
Description: (§1) Specifically, SH-SY5Y (neuroblastoma, Korean Cell Line Bank) cell line was seeded in a 6-well plate (FALCON) at 2×10^6 cells per well, cultured in an incubator containing 5% CO2 at 37° C. for 24 hours, then treated with 10 μg/ml of GCG, 10 μM of EGCG, 10 μg/ml of the existing green tea extract (GTE), 10 μg/ml of the novel substance 33, and 1 μM of 5-Aza-2′deoxycytidine (5-Aza, Sigma-aldrich) as a positive control group, and further cultured for 24 hours. Thereafter, the medium was entirely removed therefrom, and RNA was extracted therefrom using an RNA extraction kit (RNeasy mini kit, Quiagen). The extracted mRNA was quantitated using an ultraviolet detector (TECAN), and then 1 μg of mRNA was synthesized into a complementary DNA using a kit (SuperScript VILO cDNA Synthesis Kit, Thermofisher Scientific). Approximately 1 μg of the complementary DNA was taken and subjected to the real-time quantitative chain reaction using Taqman probe (Life technology) and Quantitect Probe PCR Kit (Quiagen). The expression levels of BDNF and DNMT1 were thus confirmed. At this time, the housekeeping gene, GAPDH, was used as the reference mRNA.

skin = assay: Human repeated insult patch tests (HRIPT), cumulative skin irritation; type: in vivo; parameters: key to skin reactivity (ICDRG criteria): −: Negative (no reaction); ±: Suspicious or mild erythema and the like; +: Weak reaction (not accompanied by small vesicula), erythema, papule; ++: Moderate reaction (with small vesicula), erythema, papule, vesicula; +++: Strong reaction, bulla reaction; conditions: for Number of subjects showed ±, +, or ++ reactivity, 1st time: 1st patch; for Number of subjects showed ±, +, or ++ reactivity, 1st time / Number of subjects showed ±, +, or ++ reactivity, 2nd time / Number of subjects showed ±, +, or ++ reactivity, 3rd time / Number of subjects showed ±, +, or ++ reactivity, 4th time / Number of subjects showed ±, +, or ++ reactivity, 5th time / Number of subjects showed ±, +, or ++ reactivity, 6th time / Number of subjects showed ±, +, or ++ reactivity, 7 th time / Number of subjects showed ±, +, or ++ reactivity, 8 th time / Number of subjects showed ±, +, or ++ reactivity, 9th time: three lines per group (±, +, ++; lines not labelled); for Number of subjects showed ±, +, or ++ reactivity, 2nd time: 2nd patch; for Number of subjects showed ±, +, or ++ reactivity, 3rd time: 3rd patch; for Number of subjects showed ±, +, or ++ reactivity, 4th time: 4th patch; for Number of subjects showed ±, +, or ++ reactivity, 5th time: 5th patch; for Number of subjects showed ±, +, or ++ reactivity, 6th time: 6th patch; for Number of subjects showed ±, +, or ++ reactivity, 7 th time: 7th patch; for Number of subjects showed ±, +, or ++ reactivity, 8 th time: 8th patch; for Number of subjects showed ±, +, or ++ reactivity, 9th time: 9th patch; for Average reactivity: safe when less than 3
Description: Human repeated insult patch tests (HRIPT) were conducted to determine the cumulative skin irritation by kaempferol3-O-[2-O″-(E)-p-coumaroyl][beta-D-glucopyranosyl-(1→3)-O-alpha-L-rhamnopyranosyl-(1→6)-O-beta-D-glucopyranoside] and to calculate the concentration range in which kaempferol3-O-[2-O″-(E)-p-coumaroyl][beta-D-glucopyranosyl-(1→3)-O-alpha-L-rhamnopyranosyl-(1→6)-O-beta-D-glucopyranoside] can be used on the skin.
Specifically, 15 healthy adult subjects were randomly selected, the test compositions (compositions for skin containing an emulsifier, a stabilizer, purified water, and the like in addition to the compound) containing the compound at 0.5 wt %, 1 wt %, and 3 wt % were dropped by 20 μl per chamber (IQ chamber, Epitest Ltd, Finland), and the patch was applied to the right side of the upper back of the subject and then replaced with new one after 24 hours. The skin reaction was examined before and after the patch test while the patch test was conducted three times a week and thus nine times for three weeks in total in this manner, the skin reaction was observed until the 48th hour after removal of the final patch, and the average reactivity was determined.
The skin reaction was judged according to the criteria of the International Contact Dermatitis Research Group (ICDRG). In the above table, “Novel substance 33” denotes kaempferol3-O-[2-O″-(E)-p-coumaroyl][beta-D-glucopyranosyl-(1→3)-O-alpha-L-rhamnopyranosyl-(1→6)-O-beta-D-glucopyranoside].

[2] = test system: DNMT1 (DNA (cytosine-5)-methyltransferase 1); assay: Expression level of intracellular DNMT1 in SH-SY5Y cells (real-time quantitative PCR); type: cell-based; conditions: 24 hours, mRNA vs GAPDH, untreated = 100
Description: as §1

**Q.** With `O=S1(=O)OC(c2ccc(O)cc2)(c2ccc(O)cc2)c2ccccc21` [Phenol Red] as the compound, how does the “Increased RFU (% of Pos. Cont.)” value (beta amyloid (Aβ1-42)) read?
**A.** Its value is 93.6%.

**Q.** And the inhibition at 10 µM (beta amyloid (Aβ1-42))?
**A.** Its inhibition at 10 µM is 6.4%.

**Q.** How did the “Increased RFU (amount of aggregated beta amyloid)” value (beta amyloid (Aβ1-42)) turn out when `O=c1c(O)c(-c2ccc(O)cc2O)oc2cc(O)cc(O)c12` [Morin] was run?
**A.** Its value is 11471 RFU.

**Q.** What about the “Increased RFU (% of Pos. Cont.)” value (beta amyloid (Aβ1-42)) of the same compound?
**A.** Its value is 78.6%.

**Q.** And the inhibition at 10 µM (beta amyloid (Aβ1-42))?
**A.** Its inhibition at 10 µM is 21.4%.

**Q.** With `CC1OC(OCC2OC(Oc3c(-c4ccc(O)cc4)oc4cc(O)cc(O)c4c3=O)C(OC(=O)/C=C/c3ccc(O)cc3)C(O)C2O)C(O)C(OC2OC(CO)C(O)C(O)C2O)C1O` [Novel substance 33, kaempferol3-O-[2-O″-(E)-p-coumaroyl][beta-D-glucopyranosyl-(1→3)-O-alpha-L-rhamnopyranosyl-(1→6)-O-beta-D-glucopyranoside]] as the compound, how does the “Increased RFU (amount of aggregated beta amyloid)” value (beta amyloid (Aβ1-42)) read?
**A.** The value was 11235 RFU.

**Q.** And the “Increased RFU (% of Pos. Cont.)” value (beta amyloid (Aβ1-42))?
**A.** The value was 77.0%.

**Q.** What about the inhibition at 10 µM (beta amyloid (Aβ1-42)) of the same compound?
**A.** The inhibition at 10 µM was 23%.

**Q.** What about the “Relative expression level of BDNF” value ([1]; 10 μg/ml) of the same compound?
**A.** The value was 128%.

**Q.** What about the “Number of subjects showed ±, +, or ++ reactivity, 1st time” value (“Number of subjects showed ± … 1st time” for short) (skin; 0.5 wt %) of the same compound?
**A.** The value was 0 persons.

**Q.** And the “Number of subjects showed ±, +, or ++ reactivity, 2nd time” value (shortened to “Number of subjects showed ± … 2nd time”) (skin; 0.5 wt %)?
**A.** Its value is 0 persons.

**Q.** And the “Number of subjects showed ±, +, or ++ reactivity, 3rd time” value (“Number of subjects showed ± … 3rd time” below) (skin; 0.5 wt %)?
**A.** The value was 0 persons.

**Q.** What about the “Number of subjects showed ±, +, or ++ reactivity, 4th time” value (from here on “Number of subjects showed ± … 4th time”) (skin; 0.5 wt %) of the same compound?
**A.** Its value is 0 persons.

**Q.** And the “Number of subjects showed ±, +, or ++ reactivity, 5th time” value (shortened to “Number of subjects showed ± … 5th time”) (skin; 0.5 wt %)?
**A.** The value was 0 persons.

**Q.** What about the “Number of subjects showed ±, +, or ++ reactivity, 6th time” value (“Number of subjects showed ± … 6th time” below) (skin; 0.5 wt %) of the same compound?
**A.** The value was 0 persons.

**Q.** And the “Number of subjects showed ±, +, or ++ reactivity, 7 th time” value (from here on “Number of subjects showed ± … 7 th time”) (skin; 0.5 wt %)?
**A.** Its value is 0 persons.

**Q.** And the “Number of subjects showed ±, +, or ++ reactivity, 8 th time” value (“Number of subjects showed ± … 8 th time” below) (skin; 0.5 wt %)?
**A.** Its value is 0 persons.

**Q.** What about the “Number of subjects showed ±, +, or ++ reactivity, 9th time” value (shortened to “Number of subjects showed ± … 9th time”) (skin; 0.5 wt %) of the same compound?
**A.** Its value is 0 persons.

**Q.** What about the Average reactivity (skin; 0.5 wt %) of the same compound?
**A.** Its Average reactivity is 0.

**Q.** What about the “Number of subjects showed ± … 1st time” value (skin; 1 wt %) of the same compound?
**A.** The value was 0 persons.

**Q.** What about the “Number of subjects showed ± … 2nd time” value (skin; 1 wt %) of the same compound?
**A.** The value was 0 persons.

**Q.** And the “Number of subjects showed ± … 3rd time” value (skin; 1 wt %)?
**A.** The value was 0 persons.

**Q.** And the “Number of subjects showed ± … 4th time” value (skin; 1 wt %)?
**A.** Its value is 0 persons.

**Q.** And the “Number of subjects showed ± … 5th time” value (skin; 1 wt %)?
**A.** The value was 0 persons.

**Q.** What about the “Number of subjects showed ± … 6th time” value (skin; 1 wt %) of the same compound?
**A.** The value was 0 persons.

**Q.** What about the “Number of subjects showed ± … 7 th time” value (skin; 1 wt %) of the same compound?
**A.** The value was 0 persons.

**Q.** What about the “Number of subjects showed ± … 8 th time” value (skin; 1 wt %) of the same compound?
**A.** Its value is 0 persons.

**Q.** And the “Number of subjects showed ± … 9th time” value (skin; 1 wt %)?
**A.** The value was 0 persons.

**Q.** And the Average reactivity (skin; 1 wt %)?
**A.** The Average reactivity was 0.

**Q.** And the “Number of subjects showed ± … 1st time” value (skin; 3 wt %)?
**A.** The value was 0 persons.

**Q.** And the “Number of subjects showed ± … 2nd time” value (skin; 3 wt %)?
**A.** The value was 0 persons.

**Q.** And the “Number of subjects showed ± … 3rd time” value (skin; 3 wt %)?
**A.** The value was 0 persons.

**Q.** And the “Number of subjects showed ± … 4th time” value (skin; 3 wt %)?
**A.** Its value is 0 persons.

**Q.** What about the “Number of subjects showed ± … 5th time” value (skin; 3 wt %) of the same compound?
**A.** The value was 0 persons.

**Q.** What about the “Number of subjects showed ± … 6th time” value (skin; 3 wt %) of the same compound?
**A.** The value was 0 persons.

**Q.** And the “Number of subjects showed ± … 7 th time” value (skin; 3 wt %)?
**A.** The value was 0 persons.

**Q.** And the “Number of subjects showed ± … 8 th time” value (skin; 3 wt %)?
**A.** Its value is 0 persons.

**Q.** What about the “Number of subjects showed ± … 9th time” value (skin; 3 wt %) of the same compound?
**A.** Its value is 0 persons.

**Q.** And the Average reactivity (skin; 3 wt %)?
**A.** Its Average reactivity is 0.

**Q.** What about the “skin reactivity (ICDRG criteria)” value (skin; all the content ranges (0.5, 1, 3 wt %), 15 subjects, 9 patches in 3 weeks) of the same compound?
**A.** The value was “−”.

**Q.** What about the “Relative expression level of DNMT1” value ([2]; 10 μg/ml) of the same compound?
**A.** Its value is 78%.

**Q.** For `Nc1ncn([C@H]2C[C@H](O)[C@@H](CO)O2)c(=O)n1` [5-Aza-2′deoxycytidine, reference compound], which “Relative expression level of BDNF” value ([1]; 1 μM) is on record?
**A.** Its value is 149%.

**Q.** What about the “Relative expression level of DNMT1” value ([2]; 1 μM) of the same compound?
**A.** Its value is 65%.
